# Data from US7351431B2, “Freeze-dried pharmaceutical preparation” (Dainippon Sumitomo Pharma Co., Ltd., priority 2001, dated 2008).
# Experiment: Content of drug solution in 2-methyl-2-propanol during stirring by Polytron or stirrer
# Type: physicochemical
# Details: about 40° C.; for Content [vs. 0 h %]: about 4.0 mg/mL in 2-methyl-2-propanol
# Protocol: Then, whether the content and analogous substance are affected by stirring in a homomixer was considered. To cis[((1R,2R)-1,2-cyclohexanediamine-N,N′)bis(tetradecanoyloxy)]platinum(II) monohydrate was added 2-methyl-2-propanol to a liquid formulation concentration of about 4.0 mg/mL. This was prepared in two Erlenmeyer flasks. One Erlenmeyer flask was stirred with a stirrer at a liquid temperature of about 40° C. after ultrasonication. The other Erlenmeyer flask was stirred at about 10000 rpm at a liquid temperature of about 40° C. using Polytron pulverizer (pulverization diameter G8) manufactured by IKA that pulverizes and dissolves by the same mechanism as a homogenizer. The stirring was continued with the time point when the bulk was dissolved as 0 hr. The drug solution was sampled with the lapse of time and the dissolution state was observed and the content and analogous substances were measured.
structure (smiles),measurement,setting,value
"CCCCCCCCCCCCCC(=O)[O][Pt]1([O]C(=O)CCCCCCCCCCCCC)[NH][C@@H]2CCCC[C@H]2[NH]1 [bulk, cis[((1R,2R)-1,2-cyclohexanediamine-N,N′)bis(tetradecanoyloxy)]platinum(II) monohydrate]",Content [vs. 0 h %],"Polytron, stirring time 0",100%
same,Content [vs. 0 h %],"Polytron, stirring time 0.5 h",99.5%
same,Content [vs. 0 h %],"Polytron, stirring time 1 h",99.4%
same,Content [vs. 0 h %],"Polytron, stirring time 2 h",100.9%
same,Content and analogous substances with the lapse of stirring time,any stirring method (Polytron or stirrer),showed no change
same,Content [vs. 0 h %],"stirrer, stirring time 0",100%
same,Content [vs. 0 h %],"stirrer, stirring time 0.5 h",100.9%
same,Content [vs. 0 h %],"stirrer, stirring time 1 h",100.2%
same,Content [vs. 0 h %],"stirrer, stirring time 2 h",103.1%
